Among the data in patent publication US4518790A, “15-Deoxy-16-hydroxy-16-vinyl and cyclopropyl substituted prostanoic acids and congeners” (American Cyanamid Company, priority 1980, dated 1985) are ED50 values, retold here.

Assay type in all cases: in vivo, guinea pigs
For assay [1], the system named is bronchospasms elicited by acetylcholine. The assay can be described thus: Bronchodilator activity (Konzett assay) against bronchospasm elicited by intravenous acetylcholine. Particulars: Cavia porcellus, guinea pig, three logarithmic cumulative doses, spasmogen acetylcholine i.v., read-out: Bronchodilator Activity (Konzett Assays) ED50, Spasmogenic Agent Acetylcholine. As for the experimental part:
(§1) The compounds of this invention are useful as bronchodilators for the treatment of asthma and chronic bronchitis. Bronchodilator activity is determined in guinea pigs against bronchospasms elicited by intravenous injections of 5-hydroxytryptamine, histamine or acetylcholine by the Konzett procedure. [See J. Lulling, P. Lievens, F. El Sayed and J. Prignot, Arzneimittel-Forschung, 18, 955 (1968).]
(§2) In Table 16 which follows bronchodilator activity for representative compounds of this invention against one or more of three spasmogenic agents is expressed as an ED50 determined from the results obtained with three logarithmic cummulative intravenous doses. In this assay, these compounds of this invention provide an effect of longer duration than does natural 1-PGE1 or 1-PGE2.

For assay [2], the system named is bronchospasms elicited by histamine. The assay can be described thus: Bronchodilator activity (Konzett assay) against bronchospasm elicited by intravenous histamine. Particulars: Cavia porcellus, guinea pig, three logarithmic cumulative doses, spasmogen histamine i.v., read-out: Bronchodilator Activity (Konzett Assays) ED50, Spasmogenic Agent histamine. The method, then:
as §1, §2

The test system of assay [3] is bronchospasms elicited by 5-hydroxytryptamine. The assay can be described thus: Bronchodilator activity (Konzett assay) against bronchospasm elicited by intravenous 5-hydroxytryptamine. As to conditions: Cavia porcellus, guinea pig, three logarithmic cumulative doses, spasmogen 5-hydroxytryptamine i.v., read-out: Bronchodilator Activity (Konzett Assays) ED50, Spasmogenic Agent 5-hydroxytryptamine. As for the experimental part:
as §1, §2

With `C=CC(O)(C/C=C/[C@H]1[C@H](O)CC(=O)[C@@H]1CCCCCCC(=O)O)CCCC` (relative stereo) [9-Oxo-11α,16-dihydroxy-16-vinyl-13-trans-prostenoic Acid], the results for the median effective dose (ED50) in assay [1], in assay [2] and in assay [3] were 760 µg/kg, 1.11 µg/kg and 1.86 µg/kg, respectively.

Take `C=CC(O)(C/C=C/[C@H]1[C@H](O)CC(=O)[C@@H]1C/C=C\CCCC(=O)O)CCCC` (relative stereo) [9-oxo-11α,16-dihydroxy-16-vinyl-5-cis,13-trans-prostadienoic acid]: the ED50 in assay [1] was 0.78 µg/kg; in assay [2], 0.162 µg/kg; in assay [3] it was 0.252 µg/kg.

As to `C=CC(O)(C/C=C/[C@H]1[C@H](O)CC(=O)[C@@H]1C/C=C\CCCC(=O)O)CCCCC` (relative stereo) [9-oxo-11α,16-dihydroxy-16-vinyl-20-methyl-5-cis,13-trans-prostadienoic acid], the figures for the 50% effective dose (ED50) in assay [1], in assay [2] and in assay [3] were 4.3 µg/kg, 2.3 µg/kg and 2.06 µg/kg, respectively.

For the compound `C=CC(O)(C/C=C/[C@H]1[C@H](O)CC(=O)[C@@H]1C/C=C\CCCC(=O)OC)CCCC` (relative stereo) [methyl-9-oxo-11α, 16-dihydroxy-16-vinyl-5-cis, 13-trans prostadienoate], the figures for the 50% effective dose (ED50) in assay [1], in assay [2] and in assay [3] were 0.302 µg/kg, 0.212 µg/kg and 0.354 µg/kg, respectively.

The term ED50 denotes the dose that gives a 50% effect, or the effect in half of the subjects.
